From US9757484B2 (Otonomy, Inc., priority 2014, dated 2017)

Tests used:
[1] = Loss on drying (form anhydrous/hydrate of ciprofloxacin); format: physicochemical; settings: solid dried 40° C. oven 24 hours, then 125° C. oven one hour; weight loss due to 125° C.
Procedure: To assess the form of ciprofloxacin samples described in the present disclosure, a comparison experiment is conducted to evaluate the sample's loss of weight upon heating. […] The conditions and results of the experiment are summarized below:
Experimental Setup—Loss on Drying: • If suspension: Pipette cipro suspension onto filter on vacuum filter flask • Transfer filter/dry powder to 40° C. oven, hold 24 hours • Transfer solid to pre-weighed aluminum pan and weigh solid • Transfer pan to 125° C. oven, hold one hour • Weigh again and determine weight loss due to 125° C.

[2] = Particle size (D90) of ciprofloxacin; format: physicochemical
From the text: The final drug product has particle size of D90 of about 25 μm. […] In some embodiments, it is the use of a lower sterilization temperature and homogenization of the suspension during the sterilization process that contributes to the particle size distribution of ciprofloxacin in the suspension, and in the final product.

Row | SMILES | Weight Loss on Drying [1] [%] | particle size D90 ([2]; listed as Ciprofloxacin free base anhydrous API powder) | particle size D90 ([2]; listed as hydrate form)
1 | O=C(O)c1cn(C2CC2)c2cc(N3CCNCC3)c(F)cc2c1=O [Sample 1, Ciprofloxacin] | 0.1 | under 15 μm | 
2 | O=C(O)c1cn(C2CC2)c2cc(N3CCNCC3)c(F)cc2c1=O [Sample 2, Ciprofloxacin] | 11.1 |  | around 60 μm
